Experiments:
Type in all cases: cell-based
Mino cells = test: Antiproliferative effect, MTS cell viability assay, Mino cells; details: Homo sapiens, MINO, Mino mantle cell lymphoma cells; read-out: IC50 (anti-proliferation) Mino cells
How it was run: (§1)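 Steps: seed B-cell lymphoma line; add compound at 0, 0.001, 0.01, 0.1, 1 or 10 μM; incubate 72 h; add MTS and read reduced tetrazolium (formazan) absorbance at 490 nm.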

BTK = BTK (Homo sapiens, UniProt Q06187); test: BTK degradation, DC50 and Dmax of Table 1 (cell line not given); design: endogenous in cells; details: for DC50: concentration giving 50% reduction of BTK expression level
BTK, sequence (Q06187 whole entry): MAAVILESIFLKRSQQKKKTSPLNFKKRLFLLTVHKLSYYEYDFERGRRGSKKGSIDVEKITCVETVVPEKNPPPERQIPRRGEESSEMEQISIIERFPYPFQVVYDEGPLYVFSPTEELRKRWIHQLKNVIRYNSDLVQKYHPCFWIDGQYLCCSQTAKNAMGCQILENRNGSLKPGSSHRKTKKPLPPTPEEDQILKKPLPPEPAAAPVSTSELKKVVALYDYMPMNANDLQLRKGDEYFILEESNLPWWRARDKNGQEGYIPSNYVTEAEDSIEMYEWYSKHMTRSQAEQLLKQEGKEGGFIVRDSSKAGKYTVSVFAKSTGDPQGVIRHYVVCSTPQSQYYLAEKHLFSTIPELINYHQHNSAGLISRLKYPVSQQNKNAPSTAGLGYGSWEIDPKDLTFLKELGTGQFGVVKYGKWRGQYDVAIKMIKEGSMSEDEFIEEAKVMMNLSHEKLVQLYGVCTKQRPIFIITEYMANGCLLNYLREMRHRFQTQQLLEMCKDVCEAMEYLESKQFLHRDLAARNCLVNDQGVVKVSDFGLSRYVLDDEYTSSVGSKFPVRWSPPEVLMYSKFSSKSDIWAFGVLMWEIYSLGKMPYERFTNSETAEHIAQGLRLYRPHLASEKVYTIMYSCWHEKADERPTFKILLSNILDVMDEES

JeKo-1 cells = test: Antiproliferative effect, MTS cell viability assay, JeKo-1 cells; details: Homo sapiens; JeKo-1 mantle cell lymphoma cells; read-out: IC50 (anti-proliferation) JeKO-1 cells
How it was run: as §1

Structure (SMILES)	IC50 (Mino cells)	Dmax (BTK)	DC50 (BTK)	IC50 (JeKo-1 cells)
Nc1ncnc2c1c(-c1ccc(Oc3ccccc3)cc1)nn2[C@@H]1CCCN(C(=O)N2CCC(CN3CCN(c4ccc5c(c4)CN(C4CCC(=O)NC4=O)C5=O)CC3)CC2)C1 (stereo partly drawn) [Compound 56, 3-(5-(4-((1-((R)-3-(4-amino-3-(4-phenoxyphenyl)-1H-pyrazolo[3,4-d]pyrimidin-1-yl)piperidine-1-carbonyl)piperidin-4-yl)methyl)piperazin-1-yl)-1-oxoisoindolin-2-yl)piperidine-2,6-dione]	< 1 µM	> 90%	< 0.01 µM	< 1 µM
Nc1ncnc2c1c(-c1ccc(Oc3ccccc3)cc1)nn2[C@@H]1CCCN(C2CCN(C(=O)N3CCN(CCCC4CCN(c5ccc6c(c5)CN(C5CCC(=O)NC5=O)C6=O)CC4)CC3)CC2)C1 (stereo partly drawn) [Compound 190, 3-(5-(4-(3-(4-((R)-3-(4-amino-3-(4-phenoxyphenyl)-1H-pyrazolo[3,4-d]pyrimidin-1-yl)-[1,4′-bipiperidine]-1′-carbonyl)piperazin-1-yl)propyl)piperidin-1-yl)-1-oxoisoindolin-2-yl)piperidine-2,6-dione]	> 10 µM	> 50%	> 0.05 µM	> 10 µM
Nc1ncnc2c1c(-c1ccc(Oc3ccccc3)cc1)nn2C1CCCN(CCOCCOCCN2CCN(c3ccc4c(c3)C(=O)N(C3CCC(=O)NC3=O)C4=O)CC2)C1 (stereo not shown) [Compound 3, 5-(4-(2-(2-(2-(3-(4-amino-3-(4-phenoxyphenyl)-1H-pyrazolo[3,4-d]pyrimidin-1-yl)piperidin-1-yl)ethoxy)ethoxy)ethyl)piperazin-1-yl)-2-(2,6-dioxopiperidin-3-yl)isoindoline-1,3-dione]	1 to 10 µM	> 90%	< 0.01 µM	1 to 10 µM
Nc1ncnc2c1c(-c1ccc(Oc3ccccc3)cc1)nn2[C@@H]1CCCN(C(=O)N2CCC(CCCN3CCC(c4ccc5c(c4)CN(C4CCC(=O)NC4=O)C5=O)CC3)CC2)C1 (stereo partly drawn) [Compound 116, 3-(5-(1-(3-(1-((R)-3-(4-amino-3-(4-phenoxyphenyl)-1H-pyrazolo[3,4-d]pyrimidin-1-yl)piperidine-1-carbonyl)piperidin-4-yl)propyl)piperidin-4-yl)-1-oxoisoindolin-2-yl)piperidine-2,6-dione]	> 10 µM	> 75%	> 0.05 µM	> 10 µM
Nc1ncnc2c1c(-c1ccc(Oc3ccccc3)cc1)nn2C1CCN(CCOCCN2CCN(c3ccc4c(c3)C(=O)N(C3CCC(=O)NC3=O)C4=O)CC2)CC1 (stereo not shown) [Compound 5, 5-(4-(2-(2-(4-(4-amino-3-(4-phenoxyphenyl)-1H-pyrazolo[3,4-d]pyrimidin-1-yl)piperidin-1-yl)ethoxy)ethyl)piperazin-1-yl)-2-(2,6-dioxopiperidin-3-yl)isoindoline-1,3-dione]	1 to 10 µM	> 90%	0.01 to 0.05 µM	1 to 10 µM
Nc1ncnc2c1c(-c1ccc(Oc3ccccc3)cc1)nn2[C@@H]1CCCN(C2CCN(C(=O)N3CCN(CCC4CCN(c5ccc6c(c5)C(=O)N(C5CCC(=O)NC5=O)C6=O)CC4)CC3)CC2)C1 (stereo partly drawn) [Compound 177, 5-(4-(2-(4-((R)-3-(4-amino-3-(4-phenoxyphenyl)-1H-pyrazolo[3,4-d]pyrimidin-1-yl)-[1,4′-bipiperidine]-1′-carbonyl)piperazin-1-yl)ethyl)piperidin-1-yl)-2-(2,6-dioxopiperidin-3-yl)isoindoline-1,3-dione]	1 to 10 µM	> 90%	0.01 to 0.05 µM	1 to 10 µM
Nc1ncnc2c1c(-c1ccc(Oc3ccccc3)cc1)nn2[C@@H]1CCCN(C2CCN(CCN3CCC(c4ccc5c(c4)CN(C4CCC(=O)NC4=O)C5=O)CC3)CC2)C1 (stereo partly drawn) [Compound 150, 3-(5-(1-(2-((R)-3-(4-amino-3-(4-phenoxyphenyl)-1H-pyrazolo[3,4-d]pyrimidin-1-yl)-[1,4′-bipiperidin]-1′-yl)ethyl)piperidin-4-yl)-1-oxoisoindolin-2-yl)piperidine-2,6-dione]	> 10 µM	> 75%	0.01 to 0.05 µM	1 to 10 µM
